We go through twelve compounds from US10787450B2 (BRISTOL-MYERS SQUIBB COMPANY, priority 2016, dated 2020).

Each structure is given as a SMILES string. pIC50: −log10 of the molar value.

Sequence of ROCK2 (O75116 whole entry, species assumed): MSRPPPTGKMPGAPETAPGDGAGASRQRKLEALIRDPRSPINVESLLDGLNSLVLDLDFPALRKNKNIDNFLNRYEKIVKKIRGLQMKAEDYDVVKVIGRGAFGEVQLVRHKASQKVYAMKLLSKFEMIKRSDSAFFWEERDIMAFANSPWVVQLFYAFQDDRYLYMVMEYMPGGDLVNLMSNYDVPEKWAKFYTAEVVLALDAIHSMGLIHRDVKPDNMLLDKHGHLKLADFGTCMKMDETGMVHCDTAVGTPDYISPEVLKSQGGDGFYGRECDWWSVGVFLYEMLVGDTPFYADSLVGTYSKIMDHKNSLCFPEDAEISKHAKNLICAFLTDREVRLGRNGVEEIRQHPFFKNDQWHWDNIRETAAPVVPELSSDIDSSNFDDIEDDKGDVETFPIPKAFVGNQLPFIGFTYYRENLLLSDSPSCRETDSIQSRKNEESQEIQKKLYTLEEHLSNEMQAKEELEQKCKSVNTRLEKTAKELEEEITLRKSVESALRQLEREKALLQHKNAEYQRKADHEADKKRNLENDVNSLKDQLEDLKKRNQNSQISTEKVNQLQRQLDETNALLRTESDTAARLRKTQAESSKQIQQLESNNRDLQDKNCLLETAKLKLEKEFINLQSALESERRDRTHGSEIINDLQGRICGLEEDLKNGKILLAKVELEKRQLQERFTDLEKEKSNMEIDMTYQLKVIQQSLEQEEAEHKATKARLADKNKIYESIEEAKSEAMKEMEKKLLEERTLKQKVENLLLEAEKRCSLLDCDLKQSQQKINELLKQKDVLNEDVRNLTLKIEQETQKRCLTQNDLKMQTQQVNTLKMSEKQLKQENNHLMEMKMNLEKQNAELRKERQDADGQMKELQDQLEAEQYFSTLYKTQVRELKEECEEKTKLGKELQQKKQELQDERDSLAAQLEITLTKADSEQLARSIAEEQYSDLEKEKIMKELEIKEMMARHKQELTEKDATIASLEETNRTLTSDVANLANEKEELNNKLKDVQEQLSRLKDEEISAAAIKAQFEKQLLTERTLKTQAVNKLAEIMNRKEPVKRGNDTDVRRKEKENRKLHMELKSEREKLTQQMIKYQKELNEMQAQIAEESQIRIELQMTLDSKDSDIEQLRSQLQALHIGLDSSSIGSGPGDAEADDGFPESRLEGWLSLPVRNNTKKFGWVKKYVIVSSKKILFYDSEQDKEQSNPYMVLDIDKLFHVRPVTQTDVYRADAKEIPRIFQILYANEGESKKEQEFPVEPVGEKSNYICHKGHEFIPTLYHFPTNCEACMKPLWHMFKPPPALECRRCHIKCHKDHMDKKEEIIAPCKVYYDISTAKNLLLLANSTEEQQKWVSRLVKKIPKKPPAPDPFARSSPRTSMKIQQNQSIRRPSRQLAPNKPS

The assay has as its target ROCK2 (Homo sapiens (Human), UniProt O75116). The assay is described as follows: ROCK2 kinase inhibition assay (FITC peptide substrate, LABCHIP 3000 Reader). As to conditions: 5 μM ATP, 1.5 μM peptide substrate. The format is biochemical. The method in brief:
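Reaction in 20 mM HEPES pH 7.5, 20 mM MgCl2, 0.015% Brij-35, 4 mM DTT with 5 μM ATP and 1.5 μM FITC-AHA-AKRRRLSSLRA-OH peptide, started with Rho kinase, DMSO <2%. EDTA-stopped; phospho and non-phospho peptide separated by mobility shift. IC50 from dose-response curve fit.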
As a reminder, the pIC50 is −log10 of the IC50, conventionally taken in molar units. Higher therefore signals a low IC50. `COCC(=O)N1CCC2(CC1)CN(c1ccc(-c3cn[nH]c3)c(OC)n1)C(=O)N2Cc1cccc(F)c1C` [Example 226, 1-(3-fluoro-2-methylbenzyl)-3-(6-methoxy-5-(1H-pyrazol-4-yl)pyridin-2-yl)-8-(2-methoxyacetyl)-1,3,8-triazaspiro[4.5]decan-2-one]: the pIC50 was above 8.52.
Consider `COc1nc(N2CC3(CCN(C(=O)CN(C)C)CC3)N(Cc3cccc(F)c3C)C2=O)ccc1-c1cn[nH]c1` [Example 225, 8-(2-(dimethylamino)acetyl)-1-(3-fluoro-2-methylbenzyl)-3-(6-methoxy-5-(1H-pyrazol-4-yl)pyridin-2-yl)-1,3,8-triazaspiro[4.5]decan-2-one], for which the pIC50 is above 8.52.
The compound `CCc1nc(N2CC3(CCN(C(C)=O)CC3)N(Cc3cc(F)cc(OC)c3)C2=O)ccc1-c1cn[nH]c1` [Example 89, 8-acetyl-3-(6-ethyl-5-(1H-pyrazol-4-yl)pyridin-2-yl)-1-(3-fluoro-5-methoxybenzyl)-1,3,8-triazaspiro[4.5]decan-2-one] showed a pIC50 above 8.52.
In turn, `O=C1N(c2ccc(-c3cn[nH]c3)cc2)CC2(CCNCC2)N1Cc1cc(F)cc(F)c1` [Example 68] showed a pIC50 of 7.52 to 8.52.
Compound `CC(=O)N1CCC2(CC1)CN(c1ccc(-c3cn[nH]c3)cc1)C(=O)N2Cc1ccc(F)cc1C` [Example 80, 3-(4-(1H-pyrazol-4-yl)phenyl)-8-acetyl-1-(4-fluoro-2-methylbenzyl)-1,3,8-triazaspiro[4.5]decan-2-one] gave a pIC50 of 7.52 to 8.52.
`CCc1nc(N2CC3(CCN(C(=O)C4CCCO4)CC3)N(Cc3cccc(OC)c3)C2=O)ccc1-c1cn[nH]c1` (stereo not drawn) [Example 207, 3-(6-ethyl-5-(1H-pyrazol-4-yl)pyridin-2-yl)-1-(3-methoxybenzyl)-8-(tetrahydrofuran-2-carbonyl)-1,3,8-triazaspiro[4.5]decan-2-one] gave a pIC50 above 8.52.
For the compound `CCN(C)C(=O)c1cccc(CN2C(=O)N(c3ccc(-c4cn[nH]c4)cc3)CC23CCOCC3)c1` [Example 41, 3-((3-(4-(1H-pyrazol-4-yl)phenyl)-2-oxo-8-oxa-1,3-diazaspiro[4.5]decan-1-yl)methyl)-N-ethyl-N-methylbenzamide], the pIC50 is 6.60 to 7.52.
On to `COc1nc(N2CC3(CCN(C(=O)OC(C)(C)C)CC3)N(Cc3cccc(F)c3C)C2=O)ccc1-c1cn[nH]c1` [Example 55, tert-butyl 1-(3-fluoro-2-methylbenzyl)-3-(6-methoxy-5-(1H-pyrazol-4-yl)pyridin-2-yl)-2-oxo-1,3,8-triazaspiro[4.5]decane-8-carboxylate], for which the pIC50 was 7.52 to 8.52.
In the case of `CCc1nc(N2CC3(CCN(C(=O)[C@H]4CC4(F)F)CC3)N(Cc3cccc(OC)c3)C2=O)ccc1-c1cn[nH]c1` [Example 217, (R)-8-(2,2-difluorocyclopropane-carbonyl)-3-(6-ethyl-5-(1H-pyrazol-4-yl)pyridin-2-yl)-1-(3-methoxybenzyl)-1,3,8-triazaspiro[4.5]decan-2-one], the pIC50 was above 8.52.
As to `COc1cccc(NC2C(=O)N(c3ncc(-c4cn[nH]c4)c(OC)n3)CC23CCN(C(=O)OC(C)(C)C)CC3)c1` (stereo not drawn) [Example 241, tert-butyl 2-(4-methoxy-5-(1H-pyrazol-4-yl)pyrimidin-2-yl)-4-((3-methoxyphenyl)amino)-3-oxo-2,8-diazaspiro[4.5]decane-8-carboxylate], the pIC50 was 5.52 to 6.60.
In the case of `COc1nc(N2CC3(CCN(C(=O)C(C)(C)CO)CC3)N(Cc3cccc(F)c3C)C2=O)ccc1-c1cn[nH]c1` [Example 228, 1-(3-fluoro-2-methylbenzyl)-8-(3-hydroxy-2,2-dimethylpropanoyl)-3-(6-methoxy-5-(1H-pyrazol-4-yl)pyridin-2-yl)-1,3,8-triazaspiro[4.5]decan-2-one], the pIC50 is above 8.52.
On to `CC(C)NC(=O)c1cccc(CN2C(=O)N(c3ccc(-c4cn[nH]c4)cc3)CC23CCOCC3)c1` [Example 34, 3-((3-(4-(1H-pyrazol-4-yl)phenyl)-2-oxo-8-oxa-1,3-diazaspiro[4.5]decan-1-yl)methyl)-N-isopropylbenzamide], for which the pIC50 was 7.52 to 8.52.
